Measurements reported in patent US20110052700A1, “GASTRIC RETENTIVE PHARMACEUTICAL COMPOSITIONS FOR IMMEDIATE AND EXTENDED RELEASE OF LEVOSULPIRIDE” (DEPOMED, INC., priority 2009, published 2011).

Columns and labels:
[1] = Excipient compatibility study, HDPE bottles, 40° C, 75% RH, HPLC impurity analysis; assay type: physicochemical
Protocol: Studies were done to determine compatibility of the levosulpiride with the various excipients used in the formulations described herein. Samples, as described in Table 12 below, were packaged into 60 cc high-density polyethylene (HDPE) bottles with an induction seal, then stored at 40° C., 75% relative humidity (RH). Samples may be taken at various time points to analyze for the presence of impurities.
Various samples comprised of the levosulpiride with excipients as described in Table 11 below were packaged in 60 cc HDPE bottles with induction seals, then stored at 40° C., 75% RH. Samples were analyzed at 1 and 2 months using HPLC according to the method described in Example 6.

[2] = Stress stability study, open dishes at 50° C or 80° C, 75% RH, 3 days, HPLC impurity analysis; assay type: physicochemical
Protocol: In the present work, levosulpiride was subjected to stress and compatibility studies using methods published in the European Pharmacopoeia, Supplement 2001, 1572 Assay. Both levosulpiride powder and granules comprising 95 wt % levosulpiride and 5 wt % povidone (PVP) prepared as described in Example 1 were incubated in open dishes in a stability chamber/oven at 50° C. or 80° C., 75% relative humidity (RH) for 3 days. The substances were then analyzed by HPLC (high performance liquid chromatography). The mobile phase (MP) was composed of 10% acetonitrile (ACN), 10% methanol (MeOH) and an 80% solution containing 6.8 g/l of potassium dihydrogen phosphate and 1 g/l of sodium octanesulphonate, pH 3.3. The column was a 0.25 m×4.6 mm, 5 μm Zorbax RX C8 (Agilent, Inc.), flow was set at 1.5 ml/min with a wavelength of 240 nm.

[3] = 1 vs. 2 month (one value given)

Unknown Impurity 2 RPA (%) ([1]; 1 month): 0.18%
Impurity B RPA (%) [1, 3]: <0.05%
Levosulpiride peak RPA (%) [1, 3]: 100%
Unknown Impurity 1 RPA (%) [1, 3]: <0.05%
Unknown Impurity 2 RPA (%) ([1]; 2 month): 0.19%
Impurities under the stressed condition ([2]; 50° C. or 80° C., 75% RH, 3 days): did not increase
Impurity B RPA (%) ([2]; 50° C./75% RH, Time = 3 days): <0.05%
Levosulpiride peak RPA (%) ([2]; 50° C./75% RH, Time = 3 days): 100%
Unknown Impurity 1 RPA (%) ([2]; 50° C./75% RH, Time = 3 days): <0.05%
Unknown Impurity 2 RPA (%) ([2]; 50° C./75% RH, Time = 3 days): 0.20%
Impurity B RPA (%) ([2]; 80° C./75% RH, Time = 3 days): <0.05%
Levosulpiride peak RPA (%) ([2]; 80° C./75% RH, Time = 3 days): 100%
Unknown Impurity 1 RPA (%) ([2]; 80° C./75% RH, Time = 3 days): <0.05%
Unknown Impurity 2 RPA (%) ([2]; 80° C./75% RH, Time = 3 days): 0.22%
Impurity B RPA (%) ([2]; Time = 0): <0.05%
Levosulpiride peak RPA (%) ([2]; Time = 0): 100%
Unknown Impurity 1 RPA (%) ([2]; Time = 0): <0.05%
Unknown Impurity 2 RPA (%) ([2]; Time = 0): 0.17%
Structure (SMILES): CCN1CCC[C@H]1CNC(=O)c1cc(S(N)(=O)=O)ccc1OC [Levosulpiride]
